This note sets out measurements from PubChem BioAssay AID2305 (GlaxoSmithKline (GSK), 2010).

The test system of this test is P. falciparum 3D7 growth, pLDH absorbance. Kind of test: P. falciparum 3D7 growth inhibition, dose response, strain 3D7 (AID 2305).

Each structure is given as a SMILES string.

Take `COc1cccc(Nc2nc(C)cc(NCc3ccc(-c4c(C)noc4C)cc3)n2)c1`: the IC50 – broadly, the concentration that gives 50% inhibition – was 880 nM.

`Cc1ccc(NCC(=O)Nc2ccc(F)c(Cl)c2)cc1S(=O)(=O)N1CCOCC1`: the IC50 was 60 nM. `COc1cc2nc(Cl)nc(Nc3ccncc3)c2cc1OC` gave an IC50 of 1210 nM. `Cc1cccc(C(=O)N2CCN(Cc3cccc(NC(=O)c4cccs4)c3)CC2)c1` showed an IC50 of 220 nM.

In the case of `Cc1nc(-c2nc(NCc3ccccn3)ncc2-c2ccsc2)sc1C`, the IC50 is 560 nM. The same measure for `COc1cc(NC(=O)Nc2ccc([N+](=O)[O-])cc2OC)c(OC)cc1Cl`: 1470 nM; for `CC(C)(C)C1CCC(CC2=C(C(=O)O)c3ccccc3C2=O)CC1` (stereo not given): 1100 nM. The same measure for `CCCCCCc1cc(O)c2c3c(c(=O)oc2c1)CCN(C)C3`: 670 nM; for `COC(=O)Nc1ccc(-c2ccc(C(=O)NC3CCN(C[C@H](O)c4ccnc5ccc(OC)cc45)CC3)cc2)c(C)c1`: 690 nM; for `Cc1c(S(=O)(=O)Nc2cccc(CCN3CCCCC3CCN3CCCC3)c2)sc2ccc(Cl)cc12` (stereo not given): 930 nM. Molecule `CC(C)c1ccc(NC(=O)c2cccc(CN3CCCN(CC4CCCCC4)CC3)c2)cc1` yielded an IC50 of 710 nM.

As for `O=C(Nc1ccc2c(c1)CCCN2S(=O)(=O)c1cccs1)c1cc([N+](=O)[O-])ccc1Cl`, the IC50 was found to be 840 nM. In turn, `COc1ccc(-c2nc(NC(=O)Cc3cccc(OC)c3)sc2C)cc1` gave an IC50 of 240 nM. `Cn1c(NC(=O)c2ccc(CNC(=O)c3ccc(O)c(-c4ccc(Cl)c(Cl)c4)c3)cc2)nc2ccccc21`: the IC50 turned out to be 840 nM. Turning to `CCNc1cc(C)nc(Nc2ccc(NS(=O)(=O)c3cc(OC)ccc3OC)cc2)n1`, the IC50 came to 850 nM. On to `O=C(Nc1ccc(C(F)(F)F)cc1)c1ccc(NCCCN2CCCCCC2)c([N+](=O)[O-])c1`, for which the half-inhibitory concentration (IC50) is 320 nM. `COc1cc(F)c2ncc(C#N)c(CCN3CCC(NCc4ccc5c(c4)OCCO5)CC3)c2c1` gave an IC50 of 430 nM. In turn, `Cc1cnccc1/C=C/c1cccc(OCCN2CCc3ccc(S(C)(=O)=O)cc3CC2)c1` had an IC50 of 270 nM.

`COc1ccc2nccc([C@@H](O)CN3CCC(NCc4cnc5c(c4)NC(=O)CS5)CC3)c2c1` returned an IC50 of 860 nM. In turn, `CC(=O)N(C)c1cccc(C(=O)Nc2cccc(-c3cccc(-c4nc5c(C)cccc5[nH]4)c3)c2)c1` had an IC50 of 620 nM.

For `CC1CN(C(=O)c2sc3ccccc3c2Cl)CC(C)O1` (stereo not given), the IC50 stood at 90 nM. In the case of `FC(F)(F)c1cccc(CCNc2nccc(NCc3ccccc3Cl)n2)c1`, the half-inhibitory concentration (IC50) worked out at 1170 nM.

The molecule `CN1CCCc2ccc(NC(=O)c3cc(-c4ccc(Cl)cc4)cs3)cc2C1` had an IC50 of 790 nM. For `CC(=O)Nc1nnc(SCc2c(C)cc(C(C)(C)C)cc2C)s1`, the IC50 came to 700 nM.

In turn, `COc1cccc(NC(=O)Nc2ccc(Nc3nc(C)cc(N4CCCC4)n3)cc2)c1` had an IC50 of 200 nM.

As for `COc1ccc(NC(=O)[C@H](CC(C)C)Nc2cc(C)nc(NCC3CCCCC3)n2)cc1`, the IC50 amounted to 1100 nM. In the case of `Cc1cc(NC(=O)c2ccco2)ccc1OC1CCN(Cc2ccc(C#N)cc2)CC1`, the IC50 worked out at 500 nM. In turn, `O=C(Nc1ccc(Cn2nc(Cl)c(N3CCCNCC3)cc2=O)cc1)Nc1ccc(-c2ccccc2)cc1` registered an IC50 of 840 nM. Take `O=C1COc2ccc3ccccc3c21`: the IC50 was found to be 700 nM. `Cc1cnn(-c2cccc(C(=O)NC3CCC(CCN4CCc5ccc(C#N)cc5CC4)CC3)c2)c1` (stereo not given): the IC50 was determined as 930 nM. Take `CCOc1ccccc1NC(=O)Nc1ccc2c(c1)CCN(C1CCC1)CC2`: the IC50 worked out at 1110 nM. The same measure for `Cc1[nH]c(C)c(-c2ccc(CCc3cccc(C(F)(F)F)c3)nc2)c(=O)c1Cl`: 100 nM; for `Oc1cccc(/C=N/Nc2ccnc3cc(Cl)ccc23)c1`: 730 nM. Consider `N#Cc1cncc(-c2nc3c(N4CCCC(N)C4)cccc3n2CCNCc2ccccc2)c1` (stereo not given), for which the IC50 turned out to be 770 nM. For `CC(=O)CC(=O)N1CCN(c2ccccc2)CC1`, the IC50 is 1060 nM. `N#Cc1ccc(N[C@@H](CC2CCCCC2)C(=O)NCc2cc(F)c(F)cc2F)c2ccccc12` yielded an IC50 of 950 nM. `CCOC(=O)c1cncc(/C=C/c2cc(C)cnc2N)c1` displayed an IC50 of 420 nM.

In turn, `CC1(C)N=C(N)N=C(N)N1c1cc(Cl)c(Cl)cc1Cl` gave an IC50 of 180 nM. The same measure for `CC(C)(C)c1ccc(CN2CCC(NC(=O)c3ccc(-c4ccccc4F)s3)CC2)cc1`: 1200 nM; for `O=C(CSc1n[nH]c(=O)n1Cc1ccccc1)Nc1ccccc1-c1ccccc1`: 950 nM. With `N#Cc1cccc(C(=O)Nc2cccc(-c3ccc(CN4CCCC4)cc3)c2)c1`, the IC50 amounted to 700 nM. `COc1ccc2[nH]cc(C3CCN(CCCCNC(=O)c4ccc(NC(=O)c5ccc(Cl)cc5)cc4)CC3)c2c1` came in with an IC50 of 1020 nM.

`CC(=O)N(C)C1CCN(Cc2cccc(-c3ccc(-c4nc5ccc(C(F)(F)F)cc5[nH]4)cc3)c2)C1` (stereo not given): the IC50 is 560 nM. Regarding `O=C(Nc1cccc(-c2ccc(-c3nc4ccc(C(F)(F)F)cc4[nH]3)s2)c1)c1ccncc1`, the half-inhibitory concentration (IC50) amounted to 680 nM. Molecule `C(=N\Nc1nccc2sc(-c3cccnc3)cc12)/c1cccnc1` showed an IC50 of 420 nM. `CC1(C)N=C(N)N=C(N)N1c1ccccc1` displayed a concentration for half-maximal inhibition (IC50) of 330 nM. Turning to `COc1ccc2oc(=O)c(C#N)c(O)c2c1`, the IC50 was found to be 210 nM.

In turn, `CCC(C)CN1CCN(c2ccc(NC(=O)c3cccs3)cc2)C(C)C1` (stereo not given) gave an IC50 of 540 nM. Take `Cc1cccc2[nH]c(-c3cccc(-c4cccc(CN5CCCC5CN)c4)c3)nc12` (stereo not given): the IC50 was found to be 770 nM. Consider `CN(CC(=O)N1CCN(S(=O)(=O)c2cccc(Cl)c2)CC1CN1CCCC1)c1ccc(Cl)c(Cl)c1` (stereo not given), for which the half-maximal inhibitory concentration (IC50) was found to be 1240 nM.

With `COc1ccccc1CNc1ccnc(N2CC(Oc3ccc(F)cc3)C2)n1`, the IC50 came to 850 nM. In the case of `COc1cccc(CCNCc2ccc(-c3cccc(CNC4CCCC4)c3)cc2)c1`, the half-maximal inhibitory concentration (IC50) was 730 nM. Consider `CNC(=O)CSc1nnc(-c2ccc(C)cc2)c(-c2ccc(C)cc2)n1`, for which the half-inhibitory concentration (IC50) is 600 nM. As for `Clc1ccc2c(NN=Cc3cccnc3)ccnc2c1`, the IC50 amounted to 700 nM. The molecule `CC(=O)Nc1cccc(C(=O)Nc2cccc(-c3cccc(-c4nc5ccccc5[nH]4)c3)c2)c1` yielded an IC50 of 590 nM. `O=C(Nc1cccc(-c2nn3ccccc3c2-c2ccnc(Nc3cccc(C(F)(F)F)c3)n2)c1)c1c(F)cccc1F` returned an IC50 of 630 nM. Molecule `CC(C)(C)c1ccc(-c2nc3c(ccc4nc(N)nc(N)c43)[nH]2)cc1` had an IC50 of 160 nM. `CC(C)CNCc1ccc(-c2cccc(CN(C(=O)NCCc3ccccc3)C3CCN(Cc4ccccc4)CC3)c2)cc1` yielded an IC50 of 580 nM. Consider `CC(C)(C)c1ccc(NC(=O)c2cccc(CN3CCCN(Cc4ccsc4)CC3)c2)cc1`, for which the IC50 came to 760 nM. As for `COc1ccc(-c2cc3ncnc(N4CCN(CCN5CCCC5)CC4)c3s2)cc1`, the 50% inhibitory concentration (IC50) came to 830 nM. With `N#CCCN1CCN(Cc2ccc(-c3ccc(-c4nc5ccc(F)cc5[nH]4)s3)cc2)CC1`, the half-inhibitory concentration (IC50) is 660 nM. The same measure for `CC(C)(C)OC(=O)NCc1ccc(Nc2nnc(-c3cccc(C(=O)NCCC(c4ccccc4)c4ccccc4)c3)o2)cc1`: 580 nM; for `CCc1ccc(CN2CCCCC(NC(=O)c3cc(-c4ccccc4F)cs3)C2)cc1` (stereo not given): 1160 nM. As to `Cc1c(C)c2c(c(C)c1O)CC[C@@](C)(C(=O)N1CCC(CCN3CCC(c4c[nH]c5ccccc45)CC3)CC1)O2`, the concentration for half-maximal inhibition (IC50) amounted to 670 nM.

The molecule `O=C(NCC1CCN(Cc2ccc3c(c2)OCCO3)C1)c1cc(-c2ccccc2F)cs1` (stereo not given) gave an IC50 of 1020 nM.
